Laboratory results from US7608242B2, “Peptide-chelate conjugates” (GE Healthcare Limited, priority 2001, dated 2009).
Ends that are not written are not given here. Peptide text beside a SMILES is read from it. * marks the point of attachment. X1 = CCOC(C)SCC(=O)NC(CCCC(=O)*)C(=O)NCC(=O)NCC(=O)O

Legend:
[1] = biological target: T1, ST receptor (rat intestinal membrane) (Rattus norvegicus, UniProt P23897); assay: Radioactive binding assay of HPLC purified radiolabelled compounds; conditions: ca. 0.05 nM radiolabelled compound, 6 μg rat intestinal membrane, one hour
T1 construct: in 96 well plates containing ca. 1 μg rat intestinal membrane; from tissue; host or cells: rat intestinal membrane
T1 sequence (P23897 23-1072): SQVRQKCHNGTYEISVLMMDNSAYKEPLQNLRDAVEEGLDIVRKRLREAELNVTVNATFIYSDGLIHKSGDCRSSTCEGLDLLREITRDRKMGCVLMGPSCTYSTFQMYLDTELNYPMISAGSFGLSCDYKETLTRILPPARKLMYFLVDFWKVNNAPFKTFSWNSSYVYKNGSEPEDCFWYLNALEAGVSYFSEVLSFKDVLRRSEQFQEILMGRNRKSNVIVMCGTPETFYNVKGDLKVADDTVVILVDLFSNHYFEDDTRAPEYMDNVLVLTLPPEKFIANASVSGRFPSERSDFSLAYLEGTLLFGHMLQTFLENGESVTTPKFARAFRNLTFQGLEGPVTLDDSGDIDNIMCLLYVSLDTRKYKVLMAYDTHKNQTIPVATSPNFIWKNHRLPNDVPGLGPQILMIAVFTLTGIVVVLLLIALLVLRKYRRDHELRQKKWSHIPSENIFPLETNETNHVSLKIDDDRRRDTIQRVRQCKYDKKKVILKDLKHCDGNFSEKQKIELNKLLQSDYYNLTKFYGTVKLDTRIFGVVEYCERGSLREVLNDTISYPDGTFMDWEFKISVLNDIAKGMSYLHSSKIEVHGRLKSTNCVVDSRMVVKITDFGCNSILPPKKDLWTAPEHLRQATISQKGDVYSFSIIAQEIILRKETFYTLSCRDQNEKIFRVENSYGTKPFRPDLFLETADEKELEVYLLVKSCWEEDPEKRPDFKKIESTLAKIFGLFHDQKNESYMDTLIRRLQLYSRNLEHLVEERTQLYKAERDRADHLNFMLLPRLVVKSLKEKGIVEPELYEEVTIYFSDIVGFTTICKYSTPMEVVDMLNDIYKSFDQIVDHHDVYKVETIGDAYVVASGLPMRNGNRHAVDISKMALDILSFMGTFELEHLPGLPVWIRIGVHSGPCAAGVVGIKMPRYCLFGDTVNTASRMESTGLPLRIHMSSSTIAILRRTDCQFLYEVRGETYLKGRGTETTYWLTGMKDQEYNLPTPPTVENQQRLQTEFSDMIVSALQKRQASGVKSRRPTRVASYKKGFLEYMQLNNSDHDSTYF
Method: To determine whether radiolabelling affected the binding of the compound, labelled compounds were tested for their ability to bind the receptor. Briefly HPLC purified radiolabelled compounds (ca. 0.05 nM) were incubated with 6 μg/150 μl final volume of rat intestinal membrane (one hour), in the presence and absence of competing peptide (50 μM ST5-18). Samples were filtered (GF/B filters, Whatman) to retrieve bound radiolabelled peptide and counted to determine % Bound/Free. Non-specific binding accounted for less than 1% in all cases.
In order to ensure that potency was maintained post-labelling, an assay measuring binding of labelled compounds was developed.

[2] = system: sub-cutaneous T84 tumours (T84 human colon carcinoma cells); assay: Biodistribution in a subcutaneous tumour model; format: in vivo, mouse; conditions: 60 min p.i.
Method: The sub-cutaneous model was used as an appropriate initial in vivo screen. Briefly, mice (female nude CD-1, ca. 20 g; Charles River) were injected sub-cutaneously into the neck with T84 human colon carcinoma cells (0.1 ml, 1×10^8 cells/ml in medium) through a 23-gauge needle and allowed to develop tumours over 6-8 weeks.
At least three animals per test point were studied. Results are expressed as % injected dose per gram (% ID/g) of tissue.
Compounds were screened for their uptake into sub-cutaneous T84 tumours in the mouse (Table IV). This model allows assessment of the imageability of CA1-ST5-18 by allowing comparison between tumour and background tissue uptake.

[3] = system: T84 tumours subcutaneously; assay: Imaging in the subcutaneous tumour model (planar gamma camera); format: in vivo, mouse; conditions: HPLC purified, 20 MBq per animal
Method: Tumour to liver ratios were; 1.1 at 15 minutes, 2 at 60 minutes and 4 at 120 minutes.
Tumours were grown as in Example 17. Animals were monitored for tumour growth for 8 to 10 weeks, until tumours were 0.5-1 cm in size. After this time, animals were injected with test article (0.1 ml, 20 MBq/ml or 200 MBq/ml) as an intravenous bolus via the tail vein. At various times p.i. animals were euthanased and whole body planar images acquired between 5 minutes and 24 hours p.i. using a gamma camera (Park Medical Isocam-1). Image acquisition times were typically 15-30 min or 150-250K counts (whole body, LEUHR collimator).

T84 liver tumours = assay: Imaging in liver metastases model; format: in vivo, rat; conditions: image of Example 21 (FIG. 8)
Method: The image is a whole body image with background counts removed and kidneys masked. Image tumour:liver ratio was typically 2.5.
The liver metastases model was used in both mice and rats. As for the subcutaneous tumour model except in establishing tumours, cells were injected via the spleen and allowed to transfer to the liver via the circulation. Two minutes after injection of cells, a splenectomy was performed. Animals were allowed to generate tumours over 6-8 weeks.
Tumours were grown in animal as described in Example 20. Animals were monitored for tumour growth for 8 to 10 weeks, until tumours were 0.5-1 cm in size. After this time, animals were injected with test article (0.1 ml, 200 MBq/ml) as an intravenous bolus via the tail vein. At various times p.i. animals were euthanased and whole body planar images acquired between 5 minutes and 24 hours p.i. using a gamma camera (Park Medical Isocam-1). Image acquisition times were typically 15-30 min or 150-250K counts (whole body, LEUHR collimator). […] The image has the kidneys masked to improve the resolution of the imaged metastases.

[4] = system: sub-cutaneous T84 tumours; assay: Uptake of labelled conjugate and negative control into CRC tumours; format: in vivo, mouse; conditions: CD-1 nude mice bearing s.c. T84 tumours
[5] = biological target: T1, ST receptor (rat intestinal membrane); assay: Competition binding assay against [125I]ST1-17
Method: Compounds were assessed for their potency by radioligand binding assay to determine inhibition constant (Ki) as a measure of potency of binding. Methods are described elsewhere, but briefly, [^125I]ST1-17 was competed with cold ST compounds (0.0001-50 μM) in 96 well plates containing ca. 1 μg rat intestinal membrane and incubated 1 hr, 37° C. Samples were filtered (GF/B filters, Whatman) to retrieve bound radiolabelled peptide and counted to determine % Bound/Free.
Potency of compounds was determined by inhibition constant (Ki) for their ability to compete with radioligand, [^125I]ST1-17.

[6] = Mean Ki value (nM), competition with [125I]ST1-17, ca. 1 μg rat intestinal membrane, 1 hr, 37° C., means of triplicate wells

**Q.** “99mTc-labelled CA1-ST5-18: CA1-ST5-18 peptide-chelate conjugate radiolabelled with 99mTc (CCELCCNPACAGCY; disulfide (positions not given here); not fully specified (N-terminus); ends not checked; also: 99mTc label chelated by CA1, three disulfides, pairing not given here)” was tested. Which “binding, % of added radioactive material” value [1] did it give?
**A.** The value was 6%.

**Q.** And the “excreted / cleared via urine” value [2]?
**A.** Its value is “greater than 90%”.

**Q.** And the “Tumour to liver ratio (image)” value ([3]; 15 minutes)?
**A.** The value was 1.1.

**Q.** What about the “Tumour to liver ratio (image)” value ([3]; 60 minutes) of the same compound?
**A.** Its value is 2.

**Q.** What about the “Tumour to liver ratio (image)” value ([3]; 120 minutes) of the same compound?
**A.** The value was 4.

**Q.** And the “tumour:liver ratio based on ROI analysis” value (T84 liver tumours)?
**A.** The value was 1.5-3.0.

**Q.** And the “uptake into tumour (FIG. 5)” value [4]?
**A.** Its value is “good uptake”.

**Q.** Which Ki [5, 6] does the source give for `C/C(=N/O)C(C)(C)NCCN(CCNC(=O)CCC(=O)N[C@H]1CSSC[C@@H]2NC(=O)[C@@H]3CSSC[C@@H](C(=O)N[C@@H](Cc4ccc(O)cc4)C(=O)O)NC(=O)CNC(=O)[C@H](C)NC(=O)[C@H](CSSC[C@H](NC1=O)C(=O)N[C@@H](CCC(=O)O)C(=O)N[C@@H](CC(C)C)C(=O)N3)NC(=O)[C@H](C)NC(=O)[C@@H]1CCCN1C(=O)[C@H](CC(N)=O)NC2=O)CCNC(C)(C)/C(C)=N\O` [CA1-ST5-18] here?
**A.** Its Ki is 2.8 nM.

**Q.** What about the Ki ([5]; Mean Ki value (nM), mock-labelled (subjected to the radiolabelling protocol in the absence of radiometal)) of the same compound?
**A.** Its Ki is 3.5 nM.

**Q.** Which Ki ([5]; Ki, competition binding) does the source give for `C/C(=N/O)C(C)(C)NCCN(CCNC(=O)CCC(=O)NCC(=O)NCC(=O)NCC(=O)NC(CCC(=O)O)C(=O)NC(CCC(=O)O)C(=O)NC(CCC(=O)O)C(=O)N[C@H]1CSSC[C@@H]2NC(=O)[C@@H]3CSSC[C@@H](C(=O)N[C@@H](Cc4ccc(O)cc4)C(=O)O)NC(=O)CNC(=O)[C@H](C)NC(=O)[C@H](CSSC[C@H](NC1=O)C(=O)N[C@@H](CCC(=O)O)C(=O)N[C@@H](CC(C)C)C(=O)N3)NC(=O)[C@H](C)NC(=O)[C@@H]1CCCN1C(=O)[C@H](CC(N)=O)NC2=O)CCNC(C)(C)/C(C)=N\O` (some centres unmarked) [CA1-gly3-Dglu3-ST5-18] here?
**A.** Its Ki is 1 nM.

**Q.** What does the source list for `CCOC(C)SCC(=O)NC(CCCC(=O)N[C@@H](C)C(=O)N[C@@H](C)C(=O)N[C@@H](CCC(=O)O)C(=O)N[C@@H](CC(C)C)C(=O)N[C@@H](C)C(=O)N[C@@H](C)C(=O)N[C@@H](CC(N)=O)C(=O)N1CCC[C@H]1C(=O)N[C@@H](C)C(=O)N[C@@H](C)C(=O)N[C@@H](C)C(=O)NCC(=O)N[C@@H](C)C(=O)N[C@@H](Cc1ccc(O)cc1)C(=O)O)C(=O)NCC(=O)NCC(=O)O` (some centres unmarked) [CA3-ST5-18(cys-ala), reference compound] (X1-AAELAANPAAAGAY-OH)?
**A.** Ki value (nM) ([5]; Table IV screening data): none; Ki ([5]; competition binding): no binding; Mean Ki value (nM) ([5]; competition with [125I]ST1-17, ca. 1 μg rat intestinal membrane, 1 hr, 37° C., means of triplicate wells): none

**Q.** Which results are given for `CCOC(C)SCC(=O)NC(CCCC(=O)N[C@H]1CSSC[C@@H]2NC(=O)[C@@H]3CSSC[C@@H](C(=O)N[C@@H](Cc4ccc(O)cc4)C(=O)O)NC(=O)CNC(=O)[C@H](C)NC(=O)[C@H](CSSC[C@H](NC1=O)C(=O)N[C@@H](CCC(=O)O)C(=O)N[C@@H](CC(C)C)C(=O)N3)NC(=O)[C@H](C)NC(=O)[C@@H]1CCCN1C(=O)[C@H](CC(N)=O)NC2=O)C(=O)NCC(=O)NCC(=O)O` (some centres unmarked) [CA3-ST5-18]?
**A.** Ki ([5]; Ki value (nM), Table IV screening data): 0.8 nM; Ki ([5]; Ki, competition binding): 0.8 nM; Ki [5, 6]: 0.8 nM

**Q.** Which Ki ([5]; Ki, competition binding) does the source give for `CC(C)C[C@@H]1NC(=O)[C@H](CCC(=O)O)NC(=O)[C@@H]2CSSC[C@@H]3NC(=O)[C@H](C)NC(=O)[C@@H]4CCCN4C(=O)[C@H](CC(N)=O)NC(=O)[C@H](CSSC[C@H](N)C(=O)N2)NC(=O)[C@H](CSSC[C@@H](C(=O)N[C@@H](Cc2ccc(O)cc2)C(=O)O)NC(=O)CNC(=O)[C@H](C)NC3=O)NC1=O` [ST5-18] here?
**A.** Its Ki is 0.4 nM.
